Where “and” joins values, the source holds several entries; their conditions need not be identical. Equal values may be shown once. ± gives the expanded uncertainty stated by the source.
Key:
[1] = 101 kPa, Liquid; for viscosity: Capillary tube (Ostwald / Ubbelohde) method; for mass density: Vibrating tube method
[2] = refractive index (Na D-line) (dimensionless); details: 101.33 kPa, Liquid, Standard Abbe refractometry
[3] = xn = mol fraction of the nth substance listed; details: 101 kPa, Liquid; for viscosity: Capillary tube (Ostwald / Ubbelohde) method; for mass density: Vibrating tube method
[4] = refractive index (Na D-line) (dimensionless); xn = mol fraction of the nth substance listed; details: 101 kPa, Liquid, Standard Abbe refractometry

SMILES	viscosity ([1]; 293.15 K) [mPa·s]	mass density ([1]; 293.15 K) [kg/m3]	viscosity ([1]; 298.15 K)	mass density ([1]; 298.15 K) [kg/m3]	viscosity ([1]; 303.15 K)	mass density ([1]; 303.15 K) [kg/m3]	viscosity ([1]; 308.15 K)	mass density ([1]; 308.15 K) [kg/m3]	refractive index ([2]; 293.15 K)	refractive index ([2]; 298.15 K)	refractive index ([2]; 303.15 K)	refractive index ([2]; 308.15 K)	viscosity ([3]; 293.15 K, x1 = 1) [mPa·s]	mass density ([3]; 293.15 K, x1 = 1) [kg/m3]	viscosity ([3]; 298.15 K, x1 = 1) [mPa·s]	mass density ([3]; 298.15 K, x1 = 1) [kg/m3]	viscosity ([3]; 303.15 K, x1 = 1) [mPa·s]	mass density ([3]; 303.15 K, x1 = 1) [kg/m3]	viscosity ([3]; 308.15 K, x1 = 1) [mPa·s]	mass density ([3]; 308.15 K, x1 = 1) [kg/m3]	other results
CCCCCC(C)O (stereo unspecified) [2-heptanol]	6.52 ± 0.072	817.18 ± 0.3	5.33 ± 0.063 mPa·s	813.33 ± 0.3	4.301 ± 0.052 mPa·s	809.44 ± 0.31	3.528 ± 0.044 mPa·s	805.5 ± 0.31	1.4206 ± 0.0021	1.4188 ± 0.0021	1.4165 ± 0.0021	1.4143 ± 0.0021	–	–	–	–	–	–	–	–	–
CCCCC(C)O (stereo unspecified) [2-hexanol]	5.155 ± 0.061	814.08 ± 0.3	4.1 ± 0.05 mPa·s	810.14 ± 0.31	3.41 ± 0.04 mPa·s	806.13 ± 0.31	2.819 ± 0.034 mPa·s	802.06 ± 0.31	1.4135 ± 0.0021	1.4116 ± 0.0021	1.4093 ± 0.0021	1.4077 ± 0.0021	–	–	–	–	–	–	–	–	–
CC#N [acetonitrile]	0.3542 ± 0.004	782.04 ± 0.31	0.3369 ± 0.0038 mPa·s and 0.336 ± 0.004 mPa·s	776.64 ± 0.31	0.3254 ± 0.0037 mPa·s and 0.325 ± 0.004 mPa·s	771.21 ± 0.31	0.3082 ± 0.0036 mPa·s and 0.308 ± 0.004 mPa·s	765.75 ± 0.31	1.3436 ± 0.0021	1.3411 ± 0.0021	1.339 ± 0.0021	1.3371 ± 0.0021	–	–	–	–	–	–	–	–	–
CC#N [acetonitrile] + CCC(C)O	–	–	–	–	–	–	–	–	–	–	–	–	0.3542 ± 0.004	782.04 ± 0.31	0.3369 ± 0.0038	776.64 ± 0.31	0.3254 ± 0.0037	771.21 ± 0.31	0.3082 ± 0.0036	765.75 ± 0.31	refractive index ([4]; 293.15 K, x1 = 1): 1.3436 ± 0.0021; refractive index ([4]; 298.15 K, x1 = 1): 1.3411 ± 0.0021; refractive index ([4]; 303.15 K, x1 = 1): 1.339 ± 0.0021; refractive index ([4]; 308.15 K, x1 = 1): 1.3371 ± 0.0021
CC#N [acetonitrile] + CCCC(C)O	–	–	–	–	–	–	–	–	–	–	–	–	0.3542 ± 0.071	782.04 ± 0.31	0.3369 ± 0.067	776.64 ± 0.31	0.3254 ± 0.065	771.21 ± 0.31	0.3082 ± 0.062	765.75 ± 0.31	refractive index ([4]; 293.15 K, x1 = 1): 1.3436 ± 0.0021; refractive index ([4]; 298.15 K, x1 = 1): 1.3411 ± 0.0021; refractive index ([4]; 303.15 K, x1 = 1): 1.339 ± 0.0021; refractive index ([4]; 308.15 K, x1 = 1): 1.3371 ± 0.0021
CC#N [acetonitrile] + CCCCC(C)O	–	–	–	–	–	–	–	–	–	–	–	–	0.3542 ± 0.004	782.04 ± 0.31	0.336 ± 0.004	776.64 ± 0.31	0.325 ± 0.004	771.21 ± 0.31	0.308 ± 0.004	765.75 ± 0.31	refractive index ([4]; 293.15 K, x1 = 1): 1.3436 ± 0.0021; refractive index ([4]; 298.15 K, x1 = 1): 1.3411 ± 0.0021; refractive index ([4]; 303.15 K, x1 = 1): 1.339 ± 0.0021; refractive index ([4]; 308.15 K, x1 = 1): 1.3371 ± 0.0021
CC#N [acetonitrile] + CCCCCC(C)O	–	–	–	–	–	–	–	–	–	–	–	–	0.3542 ± 0.036	782.04 ± 0.31	0.3369 ± 0.034	776.64 ± 0.31	0.3254 ± 0.033	771.21 ± 0.31	0.3082 ± 0.031	765.75 ± 0.31	refractive index ([4]; 293.15 K, x1 = 1): 1.3436 ± 0.0021; refractive index ([4]; 298.15 K, x1 = 1): 1.3411 ± 0.0021; refractive index ([4]; 303.15 K, x1 = 1): 1.339 ± 0.0021; refractive index ([4]; 308.15 K, x1 = 1): 1.3371 ± 0.0021
CCC(C)O (stereo unspecified) [butan-2-ol]	3.912 ± 0.046	806.57 ± 0.31	3.132 ± 0.039 mPa·s	802.56 ± 0.31	2.534 ± 0.029 mPa·s	798.26 ± 0.31	2.172 ± 0.024 mPa·s	793.96 ± 0.31	1.3966 ± 0.0021	1.3946 ± 0.0021	1.3924 ± 0.0021	1.3905 ± 0.0021	–	–	–	–	–	–	–	–	–
CCCC(C)O (stereo unspecified) [pentan-2-ol]	4.298 ± 0.05	809.29 ± 0.31	3.478 ± 0.059 mPa·s	805.24 ± 0.34	–	–	–	–	1.406 ± 0.0021	1.4045 ± 0.0039	–	–	–	–	–	–	–	–	–	–	–
CC(C)O [propan-2-ol]	2.351 ± 0.024	785.19 ± 0.31	2.044 ± 0.022 mPa·s	780.98 ± 0.31	1.758 ± 0.019 mPa·s	776.71 ± 0.31	1.532 ± 0.017 mPa·s	772.36 ± 0.31	1.3766 ± 0.0021	1.3745 ± 0.0021	1.3724 ± 0.0021	1.3703 ± 0.0021	–	–	–	–	–	–	–	–	–
CC(C)O [propan-2-ol] + CC#N	–	–	–	–	–	–	–	–	–	–	–	–	–	–	–	–	–	–	–	–	viscosity ([3]; 293.15 K, x2 = 0): 2.351 ± 0.024 mPa·s; mass density ([3]; 293.15 K, x2 = 0): 785.19 ± 0.31 kg/m3; viscosity ([3]; 298.15 K, x2 = 0): 2.044 ± 0.022 mPa·s; mass density ([3]; 298.15 K, x2 = 0): 780.98 ± 0.31 kg/m3; viscosity ([3]; 303.15 K, x2 = 0): 1.758 ± 0.019 mPa·s; mass density ([3]; 303.15 K, x2 = 0): 776.71 ± 0.31 kg/m3; viscosity ([3]; 308.15 K, x2 = 0): 1.532 ± 0.017 mPa·s; mass density ([3]; 308.15 K, x2 = 0): 772.36 ± 0.31 kg/m3; refractive index ([4]; 293.15 K, x2 = 0): 1.3766 ± 0.0021; refractive index ([4]; 298.15 K, x2 = 0): 1.3745 ± 0.0021; refractive index ([4]; 303.15 K, x2 = 0): 1.3724 ± 0.0021; refractive index ([4]; 308.15 K, x2 = 0): 1.3703 ± 0.0021
